From the supplement of paper PMC12076712
± gives the standard deviation of the averaged measurements.

Key:
Assay in all cases: pIC50, kinobeads binding competition
Details in all cases: cell material: Jurkat lysate
IRAK1 = IRAK1 (UniProt P51617)
PIM3 = PIM3 (UniProt Q86V86)
RAF1 = RAF1 (UniProt P04049)
TAOK2 = target: T1, TAOK2 (UniProt Q9UL54)
T1 sequence (whole entry): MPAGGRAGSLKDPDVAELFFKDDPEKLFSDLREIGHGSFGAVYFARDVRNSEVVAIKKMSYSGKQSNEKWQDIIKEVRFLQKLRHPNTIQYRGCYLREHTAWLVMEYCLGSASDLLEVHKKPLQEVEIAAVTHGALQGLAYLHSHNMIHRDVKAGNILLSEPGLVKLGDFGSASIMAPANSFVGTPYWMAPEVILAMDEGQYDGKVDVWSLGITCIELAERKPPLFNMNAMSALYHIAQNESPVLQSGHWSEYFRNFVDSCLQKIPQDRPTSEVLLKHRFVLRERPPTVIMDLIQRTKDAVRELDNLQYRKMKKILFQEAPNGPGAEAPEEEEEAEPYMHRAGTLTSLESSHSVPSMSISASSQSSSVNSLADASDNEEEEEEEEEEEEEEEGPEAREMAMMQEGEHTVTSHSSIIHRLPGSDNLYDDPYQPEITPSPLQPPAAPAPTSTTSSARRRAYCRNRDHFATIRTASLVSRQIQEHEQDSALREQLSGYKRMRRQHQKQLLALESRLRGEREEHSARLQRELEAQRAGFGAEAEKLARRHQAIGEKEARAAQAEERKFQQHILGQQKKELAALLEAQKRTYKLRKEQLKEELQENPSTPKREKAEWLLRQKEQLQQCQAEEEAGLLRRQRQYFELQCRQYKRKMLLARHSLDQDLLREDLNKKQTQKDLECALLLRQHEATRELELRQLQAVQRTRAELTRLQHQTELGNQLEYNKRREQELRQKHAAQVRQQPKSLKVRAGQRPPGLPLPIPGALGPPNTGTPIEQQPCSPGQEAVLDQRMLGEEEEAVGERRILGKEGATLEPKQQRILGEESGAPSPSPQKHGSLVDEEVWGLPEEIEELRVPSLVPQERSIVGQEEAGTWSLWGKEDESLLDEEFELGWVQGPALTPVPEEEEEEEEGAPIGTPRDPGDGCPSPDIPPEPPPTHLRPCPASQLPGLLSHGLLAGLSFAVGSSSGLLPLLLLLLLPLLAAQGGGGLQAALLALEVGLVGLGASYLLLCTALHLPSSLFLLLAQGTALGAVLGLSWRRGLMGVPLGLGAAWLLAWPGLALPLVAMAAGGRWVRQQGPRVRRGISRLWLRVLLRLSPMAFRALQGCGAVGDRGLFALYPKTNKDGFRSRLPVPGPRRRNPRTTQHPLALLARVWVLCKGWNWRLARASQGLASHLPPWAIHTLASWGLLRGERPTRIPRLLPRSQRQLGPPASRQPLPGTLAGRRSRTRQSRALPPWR

UHMK1 = target: T2, UHMK1 (UniProt Q8TAS1)
T2 sequence (whole entry): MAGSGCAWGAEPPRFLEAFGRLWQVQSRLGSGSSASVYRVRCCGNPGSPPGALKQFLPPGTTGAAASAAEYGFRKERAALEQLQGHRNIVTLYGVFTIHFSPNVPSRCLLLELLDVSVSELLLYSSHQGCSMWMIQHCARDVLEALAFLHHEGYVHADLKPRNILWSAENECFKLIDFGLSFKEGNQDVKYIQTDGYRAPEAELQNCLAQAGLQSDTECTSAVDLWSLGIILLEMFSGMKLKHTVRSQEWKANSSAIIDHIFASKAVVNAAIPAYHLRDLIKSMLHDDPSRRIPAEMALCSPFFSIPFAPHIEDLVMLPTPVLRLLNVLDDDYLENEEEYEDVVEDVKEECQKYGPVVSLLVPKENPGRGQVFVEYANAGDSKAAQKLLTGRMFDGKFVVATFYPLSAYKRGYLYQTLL

UniProt O94768 = target: T3, UniProt O94768
T3 sequence (whole entry): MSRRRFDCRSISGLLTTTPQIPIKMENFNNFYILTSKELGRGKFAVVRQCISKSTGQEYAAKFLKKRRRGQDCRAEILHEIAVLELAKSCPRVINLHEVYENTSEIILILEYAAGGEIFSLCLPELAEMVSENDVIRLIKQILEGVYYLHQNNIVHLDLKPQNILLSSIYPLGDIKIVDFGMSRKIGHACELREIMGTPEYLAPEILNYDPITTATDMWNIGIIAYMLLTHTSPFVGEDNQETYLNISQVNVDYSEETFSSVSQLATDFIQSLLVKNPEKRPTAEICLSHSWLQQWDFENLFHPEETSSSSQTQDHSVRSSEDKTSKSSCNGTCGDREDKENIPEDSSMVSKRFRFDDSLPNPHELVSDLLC

UniProt Q13233 = target: UniProt Q13233
Sequence of UniProt Q13233 (Q13233 whole entry): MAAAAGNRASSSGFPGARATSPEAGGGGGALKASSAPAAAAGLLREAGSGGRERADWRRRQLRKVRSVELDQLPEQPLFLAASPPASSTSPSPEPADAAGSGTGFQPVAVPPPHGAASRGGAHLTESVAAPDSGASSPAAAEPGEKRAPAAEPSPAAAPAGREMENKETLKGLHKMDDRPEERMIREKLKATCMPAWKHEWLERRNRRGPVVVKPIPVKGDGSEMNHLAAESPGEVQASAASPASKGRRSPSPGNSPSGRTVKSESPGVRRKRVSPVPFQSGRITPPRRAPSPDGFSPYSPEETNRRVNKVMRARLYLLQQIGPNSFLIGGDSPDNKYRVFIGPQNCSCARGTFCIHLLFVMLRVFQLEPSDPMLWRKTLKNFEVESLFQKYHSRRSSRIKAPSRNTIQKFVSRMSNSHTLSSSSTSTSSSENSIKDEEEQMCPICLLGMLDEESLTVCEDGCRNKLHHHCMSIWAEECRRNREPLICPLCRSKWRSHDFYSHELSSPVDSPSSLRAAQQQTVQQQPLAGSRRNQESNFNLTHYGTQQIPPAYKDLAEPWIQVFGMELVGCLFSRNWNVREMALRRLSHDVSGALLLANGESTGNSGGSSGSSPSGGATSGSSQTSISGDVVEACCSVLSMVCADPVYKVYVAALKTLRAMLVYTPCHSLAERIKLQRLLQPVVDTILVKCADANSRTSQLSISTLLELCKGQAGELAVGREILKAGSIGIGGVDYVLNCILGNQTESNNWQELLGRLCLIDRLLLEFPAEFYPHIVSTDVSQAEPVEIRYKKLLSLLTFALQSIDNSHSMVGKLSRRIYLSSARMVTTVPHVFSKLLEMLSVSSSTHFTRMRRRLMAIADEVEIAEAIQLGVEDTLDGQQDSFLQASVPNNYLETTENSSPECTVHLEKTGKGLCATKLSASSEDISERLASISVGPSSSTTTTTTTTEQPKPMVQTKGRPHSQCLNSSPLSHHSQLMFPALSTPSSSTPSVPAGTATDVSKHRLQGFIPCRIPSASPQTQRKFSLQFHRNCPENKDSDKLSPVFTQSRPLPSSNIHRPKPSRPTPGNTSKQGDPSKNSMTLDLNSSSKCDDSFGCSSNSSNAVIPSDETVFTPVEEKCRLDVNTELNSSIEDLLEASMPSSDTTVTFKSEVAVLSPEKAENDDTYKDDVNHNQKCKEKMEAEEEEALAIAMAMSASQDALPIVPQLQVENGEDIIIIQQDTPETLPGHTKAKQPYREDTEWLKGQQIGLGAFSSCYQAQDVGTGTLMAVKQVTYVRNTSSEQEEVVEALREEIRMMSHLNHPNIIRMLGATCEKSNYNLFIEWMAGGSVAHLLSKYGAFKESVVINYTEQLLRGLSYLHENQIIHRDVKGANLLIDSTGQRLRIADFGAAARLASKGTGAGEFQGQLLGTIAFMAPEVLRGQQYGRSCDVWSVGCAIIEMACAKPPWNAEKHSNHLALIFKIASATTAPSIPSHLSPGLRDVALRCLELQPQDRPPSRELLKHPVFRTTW

UniProt Q8N4C8 = target: UniProt Q8N4C8
Sequence of UniProt Q8N4C8 (Q8N4C8 whole entry, looked up): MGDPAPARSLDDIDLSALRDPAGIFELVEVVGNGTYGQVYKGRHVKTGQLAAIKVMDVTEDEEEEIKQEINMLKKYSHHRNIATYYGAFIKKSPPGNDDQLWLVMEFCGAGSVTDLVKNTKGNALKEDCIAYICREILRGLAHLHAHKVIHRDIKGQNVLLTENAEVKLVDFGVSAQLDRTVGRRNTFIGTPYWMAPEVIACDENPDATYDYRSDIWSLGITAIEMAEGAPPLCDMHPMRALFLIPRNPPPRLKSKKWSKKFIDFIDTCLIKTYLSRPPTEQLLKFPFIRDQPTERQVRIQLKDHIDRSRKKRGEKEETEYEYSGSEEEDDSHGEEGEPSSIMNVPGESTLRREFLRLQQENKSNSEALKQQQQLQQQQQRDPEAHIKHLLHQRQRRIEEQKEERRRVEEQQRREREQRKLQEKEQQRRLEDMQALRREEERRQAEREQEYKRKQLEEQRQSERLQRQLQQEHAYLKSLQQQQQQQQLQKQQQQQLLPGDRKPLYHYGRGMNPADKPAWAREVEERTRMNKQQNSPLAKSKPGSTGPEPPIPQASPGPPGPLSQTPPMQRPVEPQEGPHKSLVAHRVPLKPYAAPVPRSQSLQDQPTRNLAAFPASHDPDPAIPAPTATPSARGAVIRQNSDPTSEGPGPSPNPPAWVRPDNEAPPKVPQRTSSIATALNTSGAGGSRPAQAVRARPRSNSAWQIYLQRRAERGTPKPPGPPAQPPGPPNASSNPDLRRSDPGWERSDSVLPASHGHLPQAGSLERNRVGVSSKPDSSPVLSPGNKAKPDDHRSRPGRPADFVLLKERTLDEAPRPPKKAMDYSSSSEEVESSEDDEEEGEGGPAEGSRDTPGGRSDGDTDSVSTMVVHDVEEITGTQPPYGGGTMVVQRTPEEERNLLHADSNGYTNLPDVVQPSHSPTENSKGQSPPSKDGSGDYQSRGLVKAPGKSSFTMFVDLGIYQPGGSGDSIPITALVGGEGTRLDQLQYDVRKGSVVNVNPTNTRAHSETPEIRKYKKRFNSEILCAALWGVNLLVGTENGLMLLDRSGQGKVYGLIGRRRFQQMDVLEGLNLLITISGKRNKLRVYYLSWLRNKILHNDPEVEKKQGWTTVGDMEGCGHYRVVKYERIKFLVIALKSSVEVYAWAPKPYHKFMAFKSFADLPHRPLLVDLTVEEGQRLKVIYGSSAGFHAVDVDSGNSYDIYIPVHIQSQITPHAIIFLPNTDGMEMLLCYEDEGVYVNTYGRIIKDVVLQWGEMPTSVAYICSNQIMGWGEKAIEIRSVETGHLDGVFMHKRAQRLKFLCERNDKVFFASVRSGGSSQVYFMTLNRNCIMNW

Sequence of RAF1 (P04049 whole entry): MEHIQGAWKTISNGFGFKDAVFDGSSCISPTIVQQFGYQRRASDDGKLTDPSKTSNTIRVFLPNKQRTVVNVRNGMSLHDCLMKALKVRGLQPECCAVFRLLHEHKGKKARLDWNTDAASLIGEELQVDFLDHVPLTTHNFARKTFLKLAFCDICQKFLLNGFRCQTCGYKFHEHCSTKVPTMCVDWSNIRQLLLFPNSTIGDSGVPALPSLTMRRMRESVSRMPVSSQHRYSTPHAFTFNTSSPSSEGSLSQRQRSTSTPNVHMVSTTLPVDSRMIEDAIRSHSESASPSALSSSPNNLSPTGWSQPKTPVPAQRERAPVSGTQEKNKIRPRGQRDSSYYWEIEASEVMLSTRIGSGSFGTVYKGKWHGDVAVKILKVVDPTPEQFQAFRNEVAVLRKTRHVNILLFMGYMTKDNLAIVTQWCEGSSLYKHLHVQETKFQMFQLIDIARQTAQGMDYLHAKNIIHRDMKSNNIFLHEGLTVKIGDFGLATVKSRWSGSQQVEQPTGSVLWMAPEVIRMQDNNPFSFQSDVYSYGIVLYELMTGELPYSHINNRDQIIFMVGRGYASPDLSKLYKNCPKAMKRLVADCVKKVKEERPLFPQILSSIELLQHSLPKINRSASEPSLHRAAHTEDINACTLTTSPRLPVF
Sequence of IRAK1 (P51617 whole entry, looked up): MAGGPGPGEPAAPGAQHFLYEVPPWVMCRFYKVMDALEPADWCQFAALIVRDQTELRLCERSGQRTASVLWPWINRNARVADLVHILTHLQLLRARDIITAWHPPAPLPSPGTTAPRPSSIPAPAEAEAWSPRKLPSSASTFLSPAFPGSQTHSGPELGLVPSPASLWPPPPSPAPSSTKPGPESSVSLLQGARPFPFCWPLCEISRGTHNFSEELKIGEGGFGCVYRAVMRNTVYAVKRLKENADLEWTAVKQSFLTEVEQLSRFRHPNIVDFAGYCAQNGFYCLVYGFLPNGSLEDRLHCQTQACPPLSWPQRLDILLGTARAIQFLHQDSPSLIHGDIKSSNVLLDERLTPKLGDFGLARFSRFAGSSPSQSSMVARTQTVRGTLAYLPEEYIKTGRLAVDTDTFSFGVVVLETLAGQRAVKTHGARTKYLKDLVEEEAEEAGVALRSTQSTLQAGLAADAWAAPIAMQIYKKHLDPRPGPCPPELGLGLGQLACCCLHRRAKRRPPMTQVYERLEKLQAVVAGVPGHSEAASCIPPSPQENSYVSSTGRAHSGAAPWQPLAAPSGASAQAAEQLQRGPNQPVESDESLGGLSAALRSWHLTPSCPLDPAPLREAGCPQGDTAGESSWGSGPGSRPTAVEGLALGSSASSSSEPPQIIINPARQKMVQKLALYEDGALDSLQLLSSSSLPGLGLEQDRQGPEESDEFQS

Q: How did the pIC50 (IRAK1) turn out when `CCc1cnn2c(NCc3ccc[n+]([O-])c3)cc(N3CCCC[C@H]3CCO)nc12` [dinaciclib] was run?
A: < 4.52

Q: What about the pIC50 (PIM3) of the same molecule?
A: < 4.52

Q: What about the pIC50 (RAF1) of the same molecule?
A: < 4.52

Q: And the pIC50 (TAOK2)?
A: 5.6 ± 0.085

Q: What about the pIC50 (UHMK1) of the same molecule?
A: < 4.52

Q: What about the pIC50 (UniProt O94768) of the same molecule?
A: < 4.52

Q: And the pIC50 (UniProt Q13233)?
A: < 4.52

Q: What about the pIC50 (UniProt Q8N4C8) of the same molecule?
A: < 4.52
